Assay results: patent publication US6875865B1, “Selected derivatives of K-252a” (Cephalon, Inc., priority 1996, dated 2005)

Columns and labels:
basal forebrain cultures = experiment: Basal Forebrain ChAT Activity Assay; format: cell-based, rat; conditions: day six
Protocol: Compounds of the invention were assessed for their ability to promote survival and increase in ChAT activity in basal forebrain cultures. ChAT activity in these cultures is a biochemical marker for the cholinergic neurons (less than 5% of the cells in culture), which represent the major cholinergic input to the hippocampal formation, olfactory nucleus, interpeduncular nucleus, cortex, amygdala, and parts of the thalamus. […] The basal forebrain was dissected from embryonic day 17 or 18 rat embryos and the cells were […] with Dispase™ (neutral protease, Collaborative Research). Neurons were plated at 5×10^4 cells/well (1.5×10^5 cells/cm^2) in wells of 96-well plates previously coated with […] and laminin. Cells were cultured in serum-free N2 medium containing 0.05% bovine serum albumin (BSA) (Bottenetein et al., supra) at 37° in a humidified atmosphere of 5% CO2/95% air. ChAT activity was measured in vitro at day six, using a modification of the Formum procedure (supra) according to McManaman et al. (supra) and Glicksman et al. (J. Neurochem. 61:210-221, 1993).
(§1) Compounds which increased ChAT activity at least 120% of the control activity are considered active.

[1] = system: dissociated spinal cord cultures; experiment: Spinal Cord ChAT Activity Assay; format: cell-based, rat
Protocol: The effect of selected ring substituted K-252a derivatives on CHAT activity was assayed in dissociated spinal cord cultures prepared from fetal rats using the procedure described in U.S. Pat. No. 5,461,146, Columns 26 and 27, Examples 6 and 7. ChAT is the enzyme that catalyzes the synthesis of the neurotransmitter acetylcholine, and it is a specific biochemical marker for cholinergic neurons. In the spinal cord, the large majority of cholinergic neurons are motor neurons. Assay of this enzyme may thus be used as an indication of the effects of a factor, or actors, on the survival of cholinergic neurons and/or regulation of this enzyme.
as §1

[2] = concentration not given, tested between 10 nM and 500 nM, at least 120% of control = active

CCSCc1ccc2c(c1)c1c3c(c4c5cc(C=Cc6ccccn6)ccc5n5c4c1n2C1(C)OC5CC1(O)C(=O)OC)C(=O)NC3 (stereo not drawn) [Compound 105] was tested, and the “ChAT Activity maximum efficacy % of Control (conc)” value (“ChAT Activity maximum efficacy %” below) (basal forebrain cultures; maximum efficacy at 50 nM) was 136 (50 nM) % of Control.
For COC(=O)C1(O)CC2OC1(C)n1c3ccc(CCI)cc3c3c4c(c5c6cc(CCI)ccc6n2c5c31)C(=O)NC4 (stereo not drawn) [Compound 70a], the “ChAT Activity maximum efficacy %” value (basal forebrain cultures; [2]) was <120 % of Control.
COC(=O)C1(O)CC2OC1(C)n1c3ccc(C(=O)CSc4ccncc4)cc3c3c4c(c5c6ccccc6n2c5c31)C(=O)NC4 (stereo not drawn) [Compound 42b] was tested, and the “ChAT Activity maximum efficacy %” value (basal forebrain cultures; maximum efficacy at 250 nM) was 164 (250 nM) % of Control.
For COCOCc1ccc2c(c1)c1c3c(c4c5cc(COCOC)ccc5n5c4c1n2C1CC(O)(C(=O)OC)C5(C)O1)CNC3=O (stereo not drawn) [Compound 155], the “ChAT Activity maximum efficacy %” value ([1]; maximum efficacy at 300 nM) was 197 (300 nM) % of Control.
In the case of CCOCc1ccc2c(c1)c1c3c(c4c5cc(C=Cc6ccccn6)ccc5n5c4c1n2C1(C)OC5CC1(O)C(=O)OC)C(=O)NC3 (stereo not drawn) [Compound 103], the “ChAT Activity maximum efficacy %” value (basal forebrain cultures; maximum efficacy at 50 nM) is reported as 154 (50 nM) % of Control.
With CCOC(=O)CCc1ccc2c(c1)c1c3c(c4c5cc(CCC(=O)OCC)ccc5n5c4c1n2C1CC(O)(C(=O)OC)C5(C)O1)CNC3=O (stereo not drawn) [Compound 140] the “ChAT Activity maximum efficacy %” value ([1]; maximum efficacy at 300 nM) was 156 (300 nM) % of Control.
In the case of CCOCc1ccc2c(c1)c1c3c(c4c5cc(C=Cc6ccccn6)ccc5n5c4c1n2C1CC(O)(C(=O)OC)C5(C)O1)CNC3=O (stereo not drawn) [Compound 117], the “ChAT Activity maximum efficacy %” value ([1]; maximum efficacy at 30 nM) is reported as 232 (30 nM) % of Control.
For COC(=O)C1(O)CC2OC1(C)n1c3ccc(CCSc4ccncc4)cc3c3c4c(c5c6cc(CCSc7ccncc7)ccc6n2c5c31)C(=O)NC4 (stereo not drawn) [Compound 93], the “ChAT Activity maximum efficacy %” value (basal forebrain cultures; [2]) was <120 % of Control.
In the case of COC(=O)C1(O)CC2OC1(C)n1c3ccc(COCCN(C)C)cc3c3c4c(c5c6cc(C=Cc7ccccn7)ccc6n2c5c31)C(=O)NC4 (stereo not drawn) [Compound 104], the “ChAT Activity maximum efficacy %” value (basal forebrain cultures; [2]) is reported as <120 % of Control.
CCOCOCc1ccc2c(c1)c1c3c(c4c5cc(COCOCC)ccc5n5c4c1n2C1CC(O)(C(=O)OC)C5(C)O1)CNC3=O (stereo not drawn) [Compound 156] was tested, and the “ChAT Activity maximum efficacy %” value ([1]; maximum efficacy at 300 nM) was 217 (300 nM) % of Control.
For COC(=O)C1(O)CC2OC1(C)n1c3ccc(CCc4ccncc4)cc3c3c4c(c5c6cc(CCc7ccncc7)ccc6n2c5c31)C(=O)NC4 (stereo not drawn) [Compound 146], the “ChAT Activity maximum efficacy %” value ([1]; maximum efficacy at 300 nM) was 153 (300 nM) % of Control.
COC(=O)C1(O)CC2OC1(C)n1c3ccc(CCc4ccccn4)cc3c3c4c(c5c6cc(Br)ccc6n2c5c31)C(=O)NC4 (stereo not drawn) [Compound 143] was tested, and the “ChAT Activity maximum efficacy %” value ([1]; maximum efficacy at 300 nM) was 264 (300 nM) % of Control.
COC(=O)C1(O)CC2OC1(C)n1c3ccc(C=Cc4ccccn4)cc3c3c4c(c5c6cc(Br)ccc6n2c5c31)C(=O)NC4 (stereo not drawn) [Compound 142] was tested, and the “ChAT Activity maximum efficacy %” value ([1]; maximum efficacy at 300 nM) was 223 (300 nM) % of Control.
COC(=O)C1(O)CC2OC1(C)n1c3ccc(CCN4CCOCC4)cc3c3c4c(c5c6cc(CCN7CCOCC7)ccc6n2c5c31)C(=O)NC4 (stereo not drawn) [Compound 76] was tested, and the “ChAT Activity maximum efficacy %” value (basal forebrain cultures; [2]) was <120 % of Control.
In the case of COC(=O)C1(O)CC2OC1(C)n1c3ccc(CCCN4CCOCC4)cc3c3c4c(c5c6cc(CCCN7CCOCC7)ccc6n2c5c31)C(=O)NC4 (stereo not drawn) [Compound 83], the “ChAT Activity maximum efficacy %” value (basal forebrain cultures; [2]) is reported as <120 % of Control.
With COC(=O)C1(O)CC2OC1(C)n1c3ccc(CSCCN(C)C)cc3c3c4c(c5c6cc(C=Cc7ccccn7)ccc6n2c5c31)C(=O)NC4 (stereo not drawn) [Compound 106] the “ChAT Activity maximum efficacy %” value (basal forebrain cultures; maximum efficacy at 250 nM) was 135 (250 nM) % of Control.
With COC(=O)CSCCc1ccc2c(c1)c1c3c(c4c5cc(CCSCC(=O)OC)ccc5n5c4c1n2C1CC(O)(C(=O)OC)C5(C)O1)CNC3=O (stereo not drawn) [Compound 89] the “ChAT Activity maximum efficacy %” value (basal forebrain cultures; [2]) was <120 % of Control.
For CCC=Cc1ccc2c(c1)c1c3c(c4c5cc(C=Cc6ccccn6)ccc5n5c4c1n2C1CC(O)(C(=O)OC)C5(C)O1)CNC3=O (stereo not drawn) [Compound 122], the “ChAT Activity maximum efficacy %” value ([1]; maximum efficacy at 300 nM) was 279 (300 nM) % of Control.
In the case of COC(=O)C1(O)CC2OC1(C)n1c3ccc(CCCO)cc3c3c4c(c5c6cc(CCCO)ccc6n2c5c31)C(=O)NC4 (stereo not drawn) [Compound 73c], the “ChAT Activity maximum efficacy %” value (basal forebrain cultures; maximum efficacy at 250 nM) is reported as 190 (250 nM) % of Control.
With COC(=O)C1(O)CC2OC1(C)n1c3ccc(CCOC=O)cc3c3c4c(c5c6cc(CCOC=O)ccc6n2c5c31)C(=O)NC4 (stereo not drawn) [Compound 70b] the “ChAT Activity maximum efficacy %” value ([1]; maximum efficacy at 300 nM) was 169 (300 nM) % of Control.
COCc1ccc2c(c1)c1c3c(c4c5cc(C=Cc6ccccn6)ccc5n5c4c1n2C1CC(O)(C(=O)OC)C5(C)O1)CNC3=O (stereo not drawn) [Compound 116] was tested, and the “ChAT Activity maximum efficacy %” value ([1]; maximum efficacy at 30 nM) was 231 (30 nM) % of Control.
